Here are results for 19 compounds from article PMC8911025, “Design, Synthesis, and Biological Evaluation of New Azulene-Containing Chalcones” (Materials, 2022).

In general, MIC refers to the smallest concentration in the dilution series that meets the test's criterion for growth inhibition.

In series [1] the test system is Staphylococcus aureus ATCC 25923. The series is described as follows: MIC, binary serial dilution in 96-well plates. In kind it is cell-based. To be noted: for MIC: ATCC25923, Staphylococcus aureus ATCC 25923, 24 h at 37 °C; for Aexp: Aexp = 0.1 + log (k/MIC), k = 1.250, compounds synthesized herein. The method, then:
(§1) The antimicrobial activity of all compounds was assessed on Gram-positive bacteria (Staphylococcus aureus ATCC 25923), Gram-negative bacteria (Escherichia coli ATCC 25922, Pseudomonas aeruginosa ATCC 27853), and fungi (Candida parapsilosis ATCC 22019) using quantitative binary serial dilution method in 96-well plates. The negative control was represented by wells with culture medium, while positive control was the microbial strain in broth. Briefly, binary serial dilutions of the compounds performed in 100 μL of broth were seeded with microbial inoculum of 10^6 colony forming units (CFU)/mL and incubated for 24 h at 37 °C. […] Due to the fact that the obtained compounds were colored, after the incubation of the 96-well plates, from each well, 10 µL were seeded on agar plates (Plate Count Agar) to determine the inhibitory concentration. The same value of the inhibitory concentration was obtained in repeated experiments.
(§2) The antibacterial effect of the azulene moiety introduced in the chalcone structure was investigated against Gram-positive (Staphylococcus aureus ATCC 25923) and Gram-negative (Escherichia coli ATCC 25922, Pseudomonas aeruginosa ATCC 27853) bacteria, while the antifungal effect was tested against Candida parapsilosis ATCC 22019. To our knowledge, the antibacterial activity of azulene-containing chalcone compounds has not been reported previously; moreover, this is the first investigation of the biological properties of azulene-containing chalcones in general. The results expressed in terms of minimum inhibitory concentration (MIC) were determined by in vitro screening of the antimicrobial properties using the broth microdilution method and are summarized in Table 5.

Series [2] concerns Escherichia coli ATCC 25922. The series can be described thus: MIC, binary serial dilution in 96-well plates. In kind it is cell-based. To be noted: ATCC25922; Escherichia coli ATCC 25922, 24 h at 37 °C. The method, then:
as §1, §2

For series [3], the system named is Pseudomonas aeruginosa ATCC 27853. The series can be described thus: MIC, binary serial dilution in 96-well plates. In kind it is cell-based. The note with it: ATCC27853; Pseudomonas aeruginosa ATCC 27853, 24 h at 37 °C. On the procedure: as §1, §2
For series [4], the system named is Candida parapsilosis ATCC 22019. The series is described as follows: MIC (antifungal), binary serial dilution in 96-well plates. The class given is cell-based. The note with it: Lodderomyces parapsilosis, ATCC22019; Candida parapsilosis ATCC 22019, 24 h at 37 °C. On the procedure:
as §1, §2
We further tested the azulene-containing chalcone compounds for antifungal activity against Candida parapsilosis ATCC 22019.

The next series deals with Pseudomonas aeruginosa. The series can be described thus: Antibiofilm activity (crystal violet, A490). In kind it is cell-based. To be noted: biofilm, read-out: MBEC. On the procedure:
(§3) The effect of the chalcones on the biofilm formation was evaluated after the determination of the MICs. Briefly, the plates were emptied, washed to remove the nonadherent cells, fixed with methanol, and stained with crystal violet. The antibiofilm activity was determined after adding 33% acetic acid solution by measuring the absorbance at 490 nm, and the results are listed in Table 6.
(§4) The azulene-chalcone derivatives were tested for their ability to affect biofilm formation since 80% of the world’s microbial biomass is found in the biofilm state. The most efficient compound was again chalcone 6 with MBEC of 0.156–0.625 mg/mL (Table 6).

The next series deals with Staphylococcus aureus. The series can be described thus: Antibiofilm activity (crystal violet, A490). The note with it: biofilm, read-out: MBEC. In kind it is cell-based. On the procedure: as §3, §4
The subject of a further series is Candida parapsilosis. The series can be described thus: Antibiofilm activity (crystal violet, A490). In kind it is cell-based. To be noted: Lodderomyces parapsilosis, biofilm, read-out: MBEC. On the procedure:
as §3, §4

For a further series, the system named is Escherichia coli. The series can be described thus: Antibiofilm activity (crystal violet, A490). The class given is cell-based. The note with it: biofilm, read-out: MBEC. The method, then:
as §3, §4

Series [5] in a line: Cell viability assay (CellTiter Glo). The class given is cell-based. The note with it: human; HEp-2 cells, 48 h, CellTiter Glo; read-out: IC50 (50% cytotoxic concentration). On the procedure:
To assess the toxicity of the azulene-containing chalcones, the adherent cell line HEp-2 (American Cell Type Collection [ATCC] CCL-23^TM) was used.
In order to estimate the cytotoxicity of the compounds, HEp-2 cells (American Cell Type Collection (ATCC) CCL-23) were exposed to the azulene-containing chalcones at concentrations of 200, 100, 50, and 25 μg/mL and evaluated using CellTiter Glo kit (Promega, Madison, WI, USA) assay. The results presented in Figure 3 are expressed as viability percentages versus control.
(In ATP-based viability assays light output follows the ATP content of the culture.)

Series [6] relates to S. aureus. The series can be described thus: Known antibacterial activity of literature chalcones used for QSAR. In kind it is cell-based, Staphylococcus aureus. To be noted: Aexp = 0.1 + log (k/MIC), k = 1.250. On the procedure: The QSAR studies were carried out on 48 chalcones, including 10 synthesized azulenyl-chalcones, in order to identify the physicochemical parameter responsible for their antimicrobial activity against Staphylococcus aureus. The geometry optimization of the molecules was completed using PCModel and MOPAC programs. The descriptors were calculated using MOPAC, PRECLAV, and DRAGON software, and the descriptors and QSAR equations were selected using the PRECLAV algorithm. The best QSAR model was chosen based on the statistical parameters such as the square of the correlation coefficient (r^2), the Fischer’s value of significance (F), and the standard error of estimate(s).
Quantitative structure−activity relationship (QSAR) studies involving 38 chalcone derivatives (Table 7) with known antibacterial activity against S. aureus were developed. These studies were based upon observed activity and molecular descriptors. […] Two QSAR studies were performed: (i) one in which all 48 molecules were included in the calibration set and (ii) another with an external validation test. For the latter, 10 molecules were randomly chosen to be part of the validation test, whereas the rest were part of the calibration set. The result of the external validation depends strongly, among other things, on the procedures for the extraction of the calibration and validation sets from the initial database.

The subject of series [7] is S. aureus. Also on record: method as in PMID 15801857, PMID 19275612, PMID 15142563. To be noted: literature chalcones Nr. Crtl. 1-38 of Table 7; cited from earlier work.

Values after ≈ are worked out from the molar mass of the structure shown.

As for `Nc1ccc(C(=O)/C=C/c2ccc3cccccc2-3)cc1` [Compound 3, (E)-1-(4-Aminophenyl)-3-(azulen-1-yl)prop-2-en-1-one], the minimal inhibitory concentration (MIC) in [1] is 1250 µg/mL (≈ 4570 µM); in [2], 625 µg/mL (≈ 2290 µM); in series [3] it was 625 µg/mL (≈ 2290 µM); in [4] it was 312 µg/mL (≈ 1140 µM). Besides, the Aexp in series [1] is 0.100. In addition, the minimal effective concentration in the series on Pseudomonas aeruginosa stood at 1250 µg/mL; in the series on Staphylococcus aureus, 2500 µg/mL; in the series on Candida parapsilosis it was 625 µg/mL; in the series on Escherichia coli, 625 µg/mL. Also, the IC50 at 48 h in [5] was 114 µg/mL (≈ 415 µM).

As for `O=C(/C=C/c1cc(Br)c2cccccc1-2)c1ccc2cccccc1-2` [Compound 8, (E)-1-(Azulen-1-yl)-3-(3-bromoazulen-1-yl)prop-2-en-1-one], the MIC turned out to be 1250 µg/mL (≈ 3230 µM) in series [1], 625 µg/mL (≈ 1610 µM) in [2], 625 µg/mL (≈ 1610 µM) in series [3] and 312 µg/mL (≈ 806 µM) in series [4]. Besides, in series [1], the Aexp turned out to be 0.100. Further, the minimal effective concentration in the series on Pseudomonas aeruginosa amounted to 1250 µg/mL; in the series on Staphylococcus aureus, 1250 µg/mL; in the series with Candida parapsilosis, 312 µg/mL; in the series with Escherichia coli, 625 µg/mL. For the same compound, in [5], the IC50 at 48 h turned out to be 93.5 µg/mL (≈ 242 µM).

Take `COc1ccc(/C=C/C(=O)c2ccccc2)cc1O` [Nr. Crtl. 7]: the Aexp in the series on S. aureus [6] is 0.799. Also, the MIC with S. aureus [7] is 250 µg/mL (≈ 983 µM).

For `O=C(/C=C/c1ccccc1O)c1ccccc1` [Nr. Crtl. 27], in the series with S. aureus [6], the Aexp is given as 1.401. For the same compound, the MIC in the series with S. aureus [7] is 62.5 µg/mL (≈ 279 µM).

For `COc1ccc(/C=C/C(=O)c2ccc(Cl)cc2)cc1O` [Nr. Crtl. 26], in the series with S. aureus [6], the Aexp is listed as 1.401. In addition, the MIC with S. aureus [7] is 62.5 µg/mL (≈ 216 µM).

For `O=C(/C=C/c1cccc(O)c1)c1ccccc1` [Nr. Crtl. 6], the Aexp in the series with S. aureus [6] is listed as 0.799. Besides, the minimum inhibitory concentration (MIC) in the series on S. aureus [7] was 250 µg/mL (≈ 1110 µM).

Turning to `Cc1cc(C)cc(/C=C/C(=O)c2ccc(C(=O)O)cc2)c1` [Nr. Crtl. 25], in the series on S. aureus [6], the Aexp came out at 1.322. Moreover, the MIC in the series on S. aureus [7] was 75 µg/mL (≈ 268 µM).

For the compound `O=C(/C=C/c1cccc(Cl)c1Cl)c1ccc(O)cc1` [Nr. Crtl. 34], the Aexp in the series on S. aureus [6] is 2.021. For the same compound, the minimum inhibitory concentration (MIC) in the series on S. aureus [7] was 15 µg/mL (≈ 51.2 µM).

On to `O=C(O)c1ccc(C(=O)/C=C/c2ccc(Cl)cc2Cl)cc1` [Nr. Crtl. 30], for which the Aexp with S. aureus [6] is on record as 1.595. Besides, the minimum inhibitory concentration (MIC) in the series with S. aureus [7] is 40 µg/mL (≈ 125 µM).

For the compound `O=C(O)c1ccc(C(=O)/C=C/c2ccc(C(F)(F)F)cc2)cc1` [Nr. Crtl. 11], the Aexp with S. aureus [6] was determined as 1.021. Besides, the MIC with S. aureus [7] is 150 µg/mL (≈ 468 µM).

Turning to `O=C(/C=C/c1ccc(O)c(O)c1)c1ccccc1` [Nr. Crtl. 17], in the series with S. aureus [6], the Aexp was found to be 1.100. Besides, the MIC in the series with S. aureus [7] is 125 µg/mL (≈ 520 µM).

For the compound `O=C(/C=C/c1ccc2cccccc1-2)c1ccc2ccccc2c1` [Compound 5, (E)-3-(Azulen-1-yl)-1-(naphthalen-2-yl)prop-2-en-1-one], the MIC in series [1] came out at 1250 µg/mL (≈ 4050 µM); in series [2], 625 µg/mL (≈ 2030 µM); in series [3], 625 µg/mL (≈ 2030 µM); in series [4] it was 312 µg/mL (≈ 1010 µM). In addition, in series [1], the Aexp stood at 0.100. For the same compound, the minimal effective concentration with Pseudomonas aeruginosa is 1250 µg/mL; in the series on Staphylococcus aureus, 2500 µg/mL; with Candida parapsilosis, 625 µg/mL; in the series on Escherichia coli it was 625 µg/mL. For the same compound, the IC50 at 48 h in series [5] was found to be 102 µg/mL (≈ 332 µM).

Turning to `O=C(O)c1ccc(C(=O)/C=C/c2ccccc2C(F)(F)F)cc1` [Nr. Crtl. 4], the Aexp in the series with S. aureus [6] is on record as 0.720. Also, the MIC with S. aureus [7] is 300 µg/mL (≈ 937 µM).

As for `O=C(/C=C/c1ccc(O)cc1)c1ccc(Cl)cc1` [Nr. Crtl. 21], the Aexp in the series on S. aureus [6] is 1.100. In the series with S. aureus [7], the MIC was 125 µg/mL (≈ 483 µM).

Take `O=C(O)c1ccc(C(=O)/C=C/c2cc(Br)cc(Br)c2)cc1` [Nr. Crtl. 38]: the Aexp with S. aureus [6] is 2.896. Also, the MIC in the series with S. aureus [7] was 2 µg/mL (≈ 4.88 µM).

For `O=C(/C=C/c1ccc2cccccc1-2)c1ccc(O)cc1` [Compound 2, (E)-3-(Azulen-1-yl)-1-(4-hydroxyphenyl)prop-2-en-1-one], the MIC in [1] was 1250 µg/mL (≈ 4560 µM); in series [2] it was 625 µg/mL (≈ 2280 µM); in [3], 625 µg/mL (≈ 2280 µM); in series [4], 312 µg/mL (≈ 1140 µM). In addition, in [1], the Aexp is on record as 0.100. Besides, the minimal effective concentration in the series with Pseudomonas aeruginosa stood at 625 µg/mL; in the series with Staphylococcus aureus, 1250 µg/mL; in the series with Candida parapsilosis, 312 µg/mL; in the series on Escherichia coli, 625 µg/mL. For the same compound, the IC50 at 48 h in series [5] amounted to 97.5 µg/mL (≈ 355 µM).

On to `O=C(O)c1ccc(C(=O)/C=C/c2cc(Cl)cc(Cl)c2)cc1` [Nr. Crtl. 29], for which, in the series on S. aureus [6], the Aexp was determined as 1.595. The MIC in the series on S. aureus [7] was 40 µg/mL (≈ 125 µM).

Consider `O=C(/C=C/c1ccc2cccccc1-2)c1cccc2ccccc12` [Compound 4, (E)-3-(Azulen-1-yl)-1-(naphthalen-1-yl)prop-2-en-1-one], for which the MIC in [1] worked out at 1250 µg/mL (≈ 4050 µM); in series [2] it was 625 µg/mL (≈ 2030 µM); in series [3] it was 625 µg/mL (≈ 2030 µM); in series [4], 312 µg/mL (≈ 1010 µM). In addition, the Aexp in [1] stood at 0.100. For the same compound, the minimal effective concentration came to 625 µg/mL with Pseudomonas aeruginosa, 1250 µg/mL with Staphylococcus aureus, 625 µg/mL with Candida parapsilosis and 625 µg/mL in the series with Escherichia coli. Moreover, the IC50 at 48 h in [5] worked out at 61.8 µg/mL (≈ 200 µM).

As to `O=C(O)c1ccc(C(=O)/C=C/c2ccccc2Br)cc1` [Nr. Crtl. 14], in the series with S. aureus [6], the Aexp is 1.021. In addition, in the series with S. aureus [7], the MIC was 150 µg/mL (≈ 453 µM).
